US20260183275A1, “SUBSTITUTED QUINOLONE COMPOUNDS USEFUL AS INHIBITORS OF TLR9” (Bristol-Myers Squibb Company, priority 2022, published 2026)

Experiments:
Type in all cases: cell-based
human TLR8 = target: T1, human TLR8 (Homo sapiens, UniProt Q9NR97); experiment: TLR8 inhibition reporter assay (HEK-Blue cells, SEAP reporter); conditions: HEK-Blue cells overexpressing human TLR8; stimulated with R848 15.9 μM; SEAP read after 22 hour; dose range 0.05 nM-50 μM
T1 construct: host or cells: HEK-Blue cells
T1 sequence (Q9NR97 27-1041): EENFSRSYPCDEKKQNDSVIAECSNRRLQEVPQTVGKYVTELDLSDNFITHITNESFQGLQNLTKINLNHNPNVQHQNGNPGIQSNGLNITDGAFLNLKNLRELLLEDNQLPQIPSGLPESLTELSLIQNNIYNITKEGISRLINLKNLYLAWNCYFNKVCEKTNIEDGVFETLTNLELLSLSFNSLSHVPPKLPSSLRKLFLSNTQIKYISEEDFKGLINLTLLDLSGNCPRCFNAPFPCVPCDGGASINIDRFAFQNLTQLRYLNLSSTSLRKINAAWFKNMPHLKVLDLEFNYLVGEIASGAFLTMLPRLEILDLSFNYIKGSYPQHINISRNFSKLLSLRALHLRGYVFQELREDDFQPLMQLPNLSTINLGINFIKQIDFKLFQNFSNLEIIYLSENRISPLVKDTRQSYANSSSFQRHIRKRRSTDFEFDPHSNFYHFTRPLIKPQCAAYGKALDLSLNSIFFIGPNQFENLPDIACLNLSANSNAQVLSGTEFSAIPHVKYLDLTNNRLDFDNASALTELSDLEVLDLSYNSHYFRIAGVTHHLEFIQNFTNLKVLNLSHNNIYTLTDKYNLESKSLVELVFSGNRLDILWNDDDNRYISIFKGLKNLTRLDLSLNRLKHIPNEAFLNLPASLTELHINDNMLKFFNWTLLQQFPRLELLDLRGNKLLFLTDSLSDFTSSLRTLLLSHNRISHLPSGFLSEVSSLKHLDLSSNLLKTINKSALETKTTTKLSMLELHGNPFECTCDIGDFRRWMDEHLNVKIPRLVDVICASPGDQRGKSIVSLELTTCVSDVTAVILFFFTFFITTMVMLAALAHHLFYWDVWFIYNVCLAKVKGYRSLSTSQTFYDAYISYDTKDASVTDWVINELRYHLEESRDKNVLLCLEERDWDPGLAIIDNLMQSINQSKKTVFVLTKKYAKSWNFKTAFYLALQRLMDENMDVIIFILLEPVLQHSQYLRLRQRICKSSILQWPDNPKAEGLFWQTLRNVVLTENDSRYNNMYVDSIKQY
Protocol: (§1) HEK-Blue™-cells (Invivogen) overexpressing human TLR7, TLR8 or TLR9 receptors were used for screening inhibitors of these receptors using an inducible SEAP (secreted embryonic alkaline phosphatase) reporter gene under the control of the IFN-β minimal promoter fused to five NF-κB and AP-1-binding sites. Briefly, cells are seeded into Greiner 384 well plates (15000 cells per well for TLR7, 20,000 for TLR8 and 25,000 for TLR9) and then treated with test compounds in DMSO to yield a final dose response concentration range of 0.05 nM-50 μM. After a 30 minute compound pre-treatment at room temperature, the cells are then stimulated with a TLR7 ligand (gardiquimod at a final concentration of 7.5 μM), TLR8 ligand (R848 at a final concentration of 15.9 μM) or TLR9 ligand (ODN2006 at a final concentration of 5 nM) to activate NF-κB and AP-1 which induce the production of SEAP. After a 22 hour incubation at 37° C., 5% CO2, SEAP levels are determined with the addition of HEK-Blue™ Detection reagent (Invivogen), a cell culture medium that allows for detection of SEAP, according to manufacturer's specifications. The percent inhibition is determined as the % reduction in the HEK-Blue signal present in wells treated with agonist plus DMSO alone compared to wells treated with a known inhibitor.

human TLR7 = target: T2, human TLR7 (Homo sapiens, UniProt Q9NYK1); experiment: TLR7 inhibition reporter assay (HEK-Blue cells, SEAP reporter); conditions: HEK-Blue cells overexpressing human TLR7; stimulated with gardiquimod 7.5 μM; SEAP read after 22 hour; dose range 0.05 nM-50 μM
T2 construct: host or cells: HEK-Blue cells
T2 sequence (Q9NYK1 27-1049): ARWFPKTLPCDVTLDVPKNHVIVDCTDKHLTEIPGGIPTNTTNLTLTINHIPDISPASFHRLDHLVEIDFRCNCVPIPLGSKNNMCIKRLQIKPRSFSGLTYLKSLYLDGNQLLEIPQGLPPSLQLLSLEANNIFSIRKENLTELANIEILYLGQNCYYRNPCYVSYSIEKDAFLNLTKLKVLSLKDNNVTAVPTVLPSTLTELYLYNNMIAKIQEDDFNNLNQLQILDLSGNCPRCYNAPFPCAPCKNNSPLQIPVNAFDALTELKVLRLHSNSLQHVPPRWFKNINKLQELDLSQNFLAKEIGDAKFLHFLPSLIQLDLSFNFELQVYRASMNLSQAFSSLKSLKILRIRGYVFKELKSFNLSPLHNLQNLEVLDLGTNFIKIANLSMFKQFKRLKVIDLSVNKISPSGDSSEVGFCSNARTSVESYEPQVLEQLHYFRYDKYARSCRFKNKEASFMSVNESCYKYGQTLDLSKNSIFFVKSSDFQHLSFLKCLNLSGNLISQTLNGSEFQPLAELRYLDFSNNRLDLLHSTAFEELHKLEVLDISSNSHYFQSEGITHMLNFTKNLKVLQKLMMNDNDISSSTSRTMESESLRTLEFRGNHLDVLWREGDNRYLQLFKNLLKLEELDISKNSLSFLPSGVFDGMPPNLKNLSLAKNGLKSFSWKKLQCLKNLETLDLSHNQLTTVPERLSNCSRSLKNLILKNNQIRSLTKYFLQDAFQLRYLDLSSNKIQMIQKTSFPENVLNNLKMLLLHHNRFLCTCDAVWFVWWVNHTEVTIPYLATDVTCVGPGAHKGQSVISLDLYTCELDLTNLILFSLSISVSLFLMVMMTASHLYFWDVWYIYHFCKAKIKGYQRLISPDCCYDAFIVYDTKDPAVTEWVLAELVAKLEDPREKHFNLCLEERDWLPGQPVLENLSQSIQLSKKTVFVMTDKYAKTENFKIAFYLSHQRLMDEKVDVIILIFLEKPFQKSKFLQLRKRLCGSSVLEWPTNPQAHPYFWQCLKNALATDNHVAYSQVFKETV
Protocol: as §1

human TLR9 = target: T3, human TLR9 (Homo sapiens, UniProt Q9NR96); experiment: TLR9 inhibition reporter assay (HEK-Blue cells, SEAP reporter); conditions: HEK-Blue cells overexpressing human TLR9; stimulated with ODN2006 5 nM; SEAP read after 22 hour; dose range 0.05 nM-50 μM
T3 construct: host or cells: HEK-Blue cells
T3 sequence (Q9NR96 26-1032): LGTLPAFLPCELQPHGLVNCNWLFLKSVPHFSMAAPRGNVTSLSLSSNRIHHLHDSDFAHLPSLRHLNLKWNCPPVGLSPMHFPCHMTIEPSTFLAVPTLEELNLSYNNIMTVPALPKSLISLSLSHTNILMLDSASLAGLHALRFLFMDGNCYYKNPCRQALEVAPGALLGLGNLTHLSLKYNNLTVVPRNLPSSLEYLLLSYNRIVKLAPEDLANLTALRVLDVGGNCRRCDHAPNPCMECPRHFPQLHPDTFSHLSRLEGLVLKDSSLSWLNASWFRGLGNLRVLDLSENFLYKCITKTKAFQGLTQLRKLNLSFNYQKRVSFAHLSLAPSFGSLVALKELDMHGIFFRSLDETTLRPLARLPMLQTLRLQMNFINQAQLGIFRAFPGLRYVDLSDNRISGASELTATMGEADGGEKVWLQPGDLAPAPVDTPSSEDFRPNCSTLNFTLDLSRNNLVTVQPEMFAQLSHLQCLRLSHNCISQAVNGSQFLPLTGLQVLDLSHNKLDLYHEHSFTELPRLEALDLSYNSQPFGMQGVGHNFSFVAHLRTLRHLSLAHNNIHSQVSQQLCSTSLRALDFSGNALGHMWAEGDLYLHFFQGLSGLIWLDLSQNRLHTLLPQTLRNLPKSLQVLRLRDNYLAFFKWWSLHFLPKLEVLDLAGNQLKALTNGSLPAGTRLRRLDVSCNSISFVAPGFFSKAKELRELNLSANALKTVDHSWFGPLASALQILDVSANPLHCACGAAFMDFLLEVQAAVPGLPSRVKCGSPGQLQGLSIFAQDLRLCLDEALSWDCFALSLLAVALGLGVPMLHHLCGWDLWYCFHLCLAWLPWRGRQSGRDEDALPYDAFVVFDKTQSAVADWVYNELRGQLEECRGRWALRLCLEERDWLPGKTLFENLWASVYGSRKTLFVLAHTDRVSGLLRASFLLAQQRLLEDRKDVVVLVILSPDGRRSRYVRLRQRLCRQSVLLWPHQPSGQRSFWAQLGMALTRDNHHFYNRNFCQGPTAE
Protocol: as §1

SMILES | IC50 (human TLR8) | IC50 (human TLR7) | IC50 (human TLR9)
CC(C)N1CCN(c2ccc(-c3ccc4[nH]c(=O)c(-c5ccncc5)cc4c3)cc2)CC1 [Example 17, 6-{4-[4-(propan-2-yl)piperazin-1-yl]phenyl}-3-(pyridin-4-yl)-1,2-dihydroquinolin-2-one] | 0.949 µM | 0.338 µM | 0.171 µM
CC(C)N1CCN(c2ccc(-c3ccc4[nH]c(=O)c(-c5ccccc5)cc4c3)cc2)CC1 [Example 18, 3-phenyl-6-{4-[4-(propan-2-yl)piperazin-1-yl]phenyl}-1,2-dihydroquinolin-2-one] | 16.3 µM | 16.7 µM | 0.19 µM
CC(C)N1CCN(c2ccc(-c3ccc4[nH]c(=O)c(-c5ccc(C(=O)N6CCCC6(C)C)cc5)cc4c3)cc2)CC1 [Example 19, 3-[4-(2,2-dimethylpyrrolidine-1-carbonyl)phenyl]-6-{4-[4-(propan-2-yl)piperazin-1-yl]phenyl}-1,2-dihydroquinolin-2-one] | ≥ 50 µM | 2.4 µM | 0.2 µM
CC(C)N1CCN(c2ccc(-c3ccc4[nH]c(=O)c(-c5cc(F)ccc5F)cc4c3)cc2)CC1 [Example 20, 3-(2,5-difluorophenyl)-6-{4-[4-(propan-2-vi)piperazin-1-yl]phenyl}-1,2-dihydroquinolin-2-one] | 5.41 µM | 1.56 µM | 0.203 µM
CCCC(=O)Nc1ccc(-c2cc3cc(-c4ccc(N5CCN(C(C)C)CC5)cc4)ccc3[nH]c2=O)cc1 [Example 21, N-[4-(2-oxo-6-{4-[4-(propan-2-yl)piperazin-1-yl]phenyl}-1,2-dihydroquinolin-3-yl)phenyl]butanamide] | ≥ 50 µM | ≥ 50 µM | 0.214 µM
CC(C)N1CCN(c2ccc(-c3ccc4[nH]c(=O)c(-c5ccc(N6CC[C@H](F)C6)cc5)cc4c3)cc2)CC1 [Example 22, 3-{4-[(3S)-3-fluoropyrrolidin-1-yl]phenyl}-6-{4-[4-(propan-2-yl)piperazin-1-yl]phenyl}-1,2-dihydroquinolin-2-one] | ≥ 50 µM | ≥ 50 µM | 0.216 µM
CC(C)N1CCN(c2ccc(-c3ccc4c(c3)cc(-c3ccc(N(C)S(C)(=O)=O)cc3)c(=O)n4C)cc2)CC1 [Example 23, N-methyl-N-[4-(1-methyl-2-oxo-6-{4-[4-(propan-2-yl)piperazin-1-yl]phenyl}-1,2-dihydroquinolin-3-yl)phenyl]methanesulfonamide] | 36 µM | 5.51 µM | 0.221 µM
CC(C)N1CCN(c2ccc(-c3ccc4[nH]c(=O)c(-c5cccc(F)c5F)cc4c3)cc2)CC1 [Example 24, 3-(2,3-difluorophenyl)-6-{4-[4-(propan-2-yl)piperazin-1-yl]phenyl}-1,2-dihydroquinolin-2-one] | 15.2 µM | 2 µM | 0.224 µM
Cc1ccccc1-c1cc2cc(-c3ccc(N4CCN(C(C)C)CC4)cc3)ccc2[nH]c1=O [Example 25, 3-(2-methylphenyl)-6-{4-[4-(propan-2-yl)piperazin-1-yl]phenyl}-1,2-dihydroquinolin-2-one] | 1.39 µM | 6.48 µM | 0.226 µM
CC(C)C(=O)Nc1ccc(-c2cc3cc(-c4ccc(N5CCN(C(C)C)CC5)cc4)ccc3n(C)c2=O)cc1 [Example 26, 2-methyl-N-[4-(1-methyl-2-oxo-6-{4-[4-(propan-2-yl)piperazin-1-yl]phenyl}-1,2-dihydroquinolin-3-yl)phenyl]propanamide] | 0.673 µM | 1.8 µM | 0.231 µM
CC(C)N1CCN(c2ccc(-c3ccc4c(c3)cc(-c3ccc(S(C)(=O)=O)cc3)c(=O)n4C)cc2)CC1 [Example 27, 3-(4-methanesulfonylphenyl)-1-methyl-6-{4-[4-(propan-2-yl)piperazin-1-yl]phenyl}-1,2-dihydroquinolin-2-one] | 1.04 µM | 2.5 µM | 0.233 µM
COC(=O)c1ccc(-c2cc3cc(-c4ccc(N5CCN(C(C)C)CC5)cc4)ccc3[nH]c2=O)cc1 [Example 28, methyl 4-(2-oxo-6-{4-[4-(propan-2-yl)piperazin-1-yl]phenyl}-1,2-dihydroquinolin-3-yl)benzoate] | ≥ 50 µM | ≥ 50 µM | 2.28 µM
